Consider 87 molecules from a melting point compilation (Tetko et al.; mined from patent text by program, amines drawn as free bases though some values may be those of a salt).

The term melting point denotes the temperature, or range, at which the solid turns liquid.

Regarding `CCc1cccc(CC)c1NC(=O)C1c2ccccc2COc2ccc(Br)cc21` (configuration not stated), the melting point was in the range of 234 to 235 °C.
`CCC(=O)N(C(=O)CC)c1c(OCc2ccccc2)cc(Br)cc1[N+](=O)[O-]` registered a melting point of 90 to 92 °C.
The molecule `CC(=O)OCc1ccc2oc(=O)c(C(=O)Oc3ccccc3I)cc2c1` displayed a melting point of 156 to 158 °C.
Take `O=C1NC2(CCCCC2)c2ccccc21`: the melting point was in the range of 232 to 234 °C.
As to `O=C(C=Cc1ccc(N2CCOCC2)cc1)c1ccc2c(c1)CCCC2`, the melting point fell in the range of 138 to 140 °C.
For `Cc1ccccc1COC1COC(CCl)OC1` (configuration not stated), the melting point was 62 to 63 °C.
Consider `CCC1(NC2=NS(=O)(=O)c3sc(Cl)cc3N2)CCC1`, for which the melting point was 244 to 246 °C.
Take `CC(=O)c1ccc(NS(C)(=O)=O)c(Oc2ccc(Cl)cc2Cl)c1`: the melting point was 119 to 121 °C.
`CN(Cc1ccccc1)c1nc(=O)c2cc(C(F)(F)F)cc([N+](=O)[O-])c2s1`: the melting point was in the range of 120 to 124 °C.
Regarding `OCc1c(F)c(F)c(Br)c(F)c1F`, the melting point is 60 to 62 °C.
As for `CN(C(=O)c1ccc2nonc2c1)C1CCCC(=O)C1` (configuration not stated), the melting point was in the range of 164 to 165 °C.
Molecule `Cc1cc(Cc2cnc(Cl)nc2Cl)c2cccnc2c1N` yielded a melting point of 209 to 211 °C.
As for `OCc1cccc(OCc2ccc3ccccc3n2)c1`, the melting point amounted to 70 °C.
For `Cc1nn(-c2ccc(Cl)nn2)c(C)c1[N+](=O)[O-]`, the melting point lay in the range of 164 to 167 °C.
The same measure for `OCc1ccc(-c2cc3c(Nc4ccc(F)c(Cl)c4)ncnc3[nH]2)cc1`: above 300 °C.
In turn, `Cc1cc(-c2cc(C(F)F)n3ncc(C(=O)O)c3n2)ccc1C(F)(F)F` gave a melting point of 217 °C.
As to `CCCCOCCOc1ccc(-c2ccc3c(c2)C=C(C(=O)Nc2ccc(/C(Cc4nccn4CCC)=N/OC)cc2)CCN3CC(C)C)cc1`, the melting point lay within 159 to 161 °C.
The same measure for `COc1ccc(-c2ccc(C(=O)NCCOc3ccc(CC(Oc4ccc(C(C)C)cc4)C(=O)O)cc3)cn2)cc1` (configuration not stated): 166 to 167 °C; for `COc1ccc(-c2nc(C#N)cn2-c2ccc(OC)cc2)cc1`: 132 to 134 °C.
In turn, `CSc1ccc2cccc(CCNC(=O)C3CC3)c2c1` gave a melting point of 96 to 98 °C.
With `Cc1ccc2[nH]c(CO)cc2c1C`, the melting point is 159 °C.
As for `COC(=O)C(CCSC)N(C(=O)OC(C)(C)C)C(=O)c1ccc(N)c(OC)c1` (configuration not stated), the melting point was 163 to 165 °C.
`CN(CCO)c1nccc(NC(N)=NCC(F)(F)F)n1` returned a melting point of 158 to 160 °C.
For `c1ccc(C2CCNC3=NCCCN32)cc1` (configuration not stated), the melting point is 177 to 179 °C.
The same measure for `O=c1oc(-c2ccccc2Cl)nn1-c1ccccc1C(F)(F)F`: 100 to 102 °C.
With `N#Cc1cc(N)ccc1N1CCC(OC(=O)c2ccccc2)CC1`, the melting point fell in the range of 154 to 155 °C.
Take `O=C(Nc1cccnc1)N1CCN(c2ccnc(-c3cccc(F)c3F)n2)CC1`: the melting point fell in the range of 208 to 209 °C.
The same measure for `O=[N+]([O-])c1cc(-c2ccoc2)ccc1Nc1cc(-n2ccnc2)ncn1`: 198 to 200 °C; for `O=S(=O)(NCCc1ccc(CCO)cc1)c1cccc(C(F)(F)F)c1`: 70 to 72 °C; for `CCC(O)(c1ccc(F)cc1)c1ccc(OCCCN2CCN(Cc3ccccc3)CC2)cc1` (configuration not stated): 119 to 121 °C.
`C[C@@H]([C@@H](O)c1ccc(OCc2ccccc2)cc1)N1CCC(O)(c2ccccc2)CC1` yielded a melting point of 158 to 161 °C.
The same measure for `CNC1CC=C(c2c[nH]c3ccc([N+](=O)[O-])cc23)CC1` (configuration not stated): 208 to 210 °C; for `O=C(NCCCCN1CCC(c2c[nH]c3ccccc23)CC1)c1ccc(-c2ccc(C(F)(F)F)cc2)c(CO)c1`: 177 °C; for `COc1cc(C2CCNCC2)ccc1Nc1ncc2ccc(N3CC(c4ccccc4)CC3=O)n2n1` (configuration not stated): 178 to 183 °C.
`Cc1nc2ccccc2n2cnc(C(=O)OC(C)(C)C)c12` gave a melting point of 176 to 177 °C.
For the molecule `NC(=O)c1cn(Cc2ccccc2)c(CO)n1`, the melting point fell in the range of 204 to 207 °C.
`CCCCc1c(OCCN2CCOCC2)c2c(OCCN3CCOCC3)cc(OCCN3CCOCC3)cc2oc1=O` came in with a melting point of 131 °C.
On to `Cc1cc(NC(=O)CC(C)(C)C)c(C)c2c1OC(C)(C)C2c1ccc(C(C)C)cc1` (configuration not stated), for which the melting point lay in the range of 118 to 119 °C.
The same measure for `CCCC1CCC(CC(=O)N[C@@H](Cc2cc(F)cc(F)c2)[C@H](O)CNCc2cccc(CC)c2)CC1=O` (some centres not stated): 52 to 54 °C.
As for `COc1ccc([C@]2(c3ccc(F)c(-c4cncnc4)c3)N=C(N)N(C)C2=O)cc1C`, the melting point was determined as 115 °C.
Molecule `CCOC(=O)Cc1c(CCc2ccc(O)cc2)oc2ccc(C#N)cc12` displayed a melting point of 134 to 136 °C.
`O=C1C2=C(CCCC2)C(=S)N1c1ccc(Cl)cc1F` had a melting point of 101 to 102 °C.
`C[C@@H](CN1CCc2ccc3c(c21)OCCO3)NC(=O)OC(C)(C)C`: the melting point was in the range of 130 to 132 °C.
The same measure for `BrCc1ccc2ccccc2c1CBr`: 149 to 150 °C.
On to `COC(=O)COc1cc(C(=O)N2CCOCC2)ccc1[N+](=O)[O-]`, for which the melting point lay in the range of 140 to 142 °C.
On to `CC1(C)Cc2cc(Cl)cc(Cl)c2C=[N+]1[O-]`, for which the melting point is 92 to 94 °C.
In turn, `CCCCC(C)C(=O)C=P(c1ccccc1)(c1ccccc1)c1ccccc1` (configuration not stated) displayed a melting point of 107 to 109 °C.
As for `CC(C)(C)OC(=O)CN(C(=O)CNC(=O)c1ccc(Cl)c(Cl)c1)c1ccccc1`, the melting point was determined as 95 °C.
On to `COc1cc2c(cc1OC)CN(CCc1ccc(-c3ccccc3)cc1)CC2`, for which the melting point lay within 162 to 164 °C.
In turn, `O=C(Nc1ccncc1)c1cccc(-c2ccc3c(c2)C(Oc2ccc(Cl)cc2Cl)CC3)c1` (configuration not stated) returned a melting point of 226 to 227 °C.
`CCCc1cc2c(=O)n3cc(C(=O)O)ccc3nc2s1` returned a melting point of 250 to 254 °C.
In the case of `CCOP(=O)(CCN1CCC(N(NCCN2CCCC2)S(=O)(=O)c2ccc(Nc3nccc(Nc4ccc(F)cc4)n3)cc2)CC1)OCC`, the melting point amounted to 85 °C.
In turn, `Cn1cnc(=O)c(-c2cccc(Br)c2)c1` gave a melting point of 120 to 121 °C.
`O=C1COc2ccc(C3=CN=C(c4ccccc4)SC3c3ccccc3)cc2N1` (configuration not stated): the melting point lay within 231 to 233 °C.
As to `Cc1cc(C(=O)NCc2cccc([N+](=O)[O-])c2)c(OCC(=O)O)cc1F`, the melting point lay within 177 to 179 °C.
As for `COC(=O)CCSCC(=O)c1ccc2[nH]c(=O)[nH]c2c1`, the melting point is 185 to 187 °C.
Molecule `CN1CCN(c2cc(Cl)cc3c2c(=O)n(Cc2ccccc2F)c(=O)n3Cc2ccccc2)CC1` showed a melting point of 147 to 149 °C.
In turn, `COc1ccc(-c2c3c(cc4ccc5c(c24)OCO5)C(=O)NCC3)cc1` registered a melting point of 245 to 247 °C.
Then `CN(C)Cc1ccc(CSCCNC(=S)NC(=O)c2ccccc2)o1`, with 83 to 85 °C; and `CCC1=NNC(C)=C(C(=O)NN)C1c1cccc([N+](=O)[O-])c1` (configuration not stated), with 98 °C.
Molecule `CCOC(=O)/C(C)=C/CC[C@@H](C)[C@H]1CC[C@@]2(C)C3=CCC4C(C)(C)C(=O)CC[C@]4(C)C3=CC[C@]12C` (some centres not stated) displayed a melting point of 53 to 55 °C.
`N#Cc1ccc2nc[nH]c(=O)c2c1` came in with a melting point of 294 to 300 °C.
With `COc1ccc2c(C(=S)N(C)CC(=O)O)cccc2c1C(F)(F)C(F)(F)F`, the melting point lay in the range of 164 to 165 °C.
Then `O=c1c2ccccc2nc(-c2cc(-c3ccncc3)c(N3CCOCC3)s2)n1-c1ccc(Cl)cc1`, with 195 to 197 °C; and `COc1ccc(Cn2c(=O)c3ccccc3n(CCCCBr)c2=O)cc1`, with 124 to 125 °C.
In turn, `COC(=O)c1cc([N+](=O)[O-])c(C(F)(F)F)cc1NC(C)=O` yielded a melting point of 75 to 80 °C.
Molecule `CCc1c(-c2ccc(CO)cc2)c2cc(C(C)=O)c3cccc1n32` gave a melting point of 73 to 77 °C.
Molecule `COc1cc(F)c(C)cc1N` came in with a melting point of 108 to 110 °C.
Turning to `COc1cc(C(=O)Cn2c(-c3nonc3N)nc3ccccc32)ccc1O`, the melting point was 265 °C.
As for `Cc1c(CO)oc2ccc([N+](=O)[O-])cc12`, the melting point was 149 to 150 °C.
The same measure for `CS(=O)(=O)c1ccc(Oc2cc(OCc3ccccc3)c3[nH]c(C(=O)O)cc3c2)cc1`: 232 to 233 °C.
For the molecule `On1cc(-c2ccccc2)[nH]c1=S`, the melting point was 196 °C.
Molecule `CC(=O)NC[C@H]1CN(c2cc(F)c(C3CCN(C(=O)COCc4ccccc4)CC3)c(F)c2)C(=O)O1` showed a melting point of 169 to 171 °C.
The molecule `Cc1c(C)c2c(c(C)c1NC=O)CC(C)(CBr)O2` (configuration not stated) returned a melting point of 157 to 158 °C.
In turn, `Cc1c(NC(=O)c2ccc(-c3ccc(F)cc3)cc2)ccc2cc(CN3CCCC3)cnc12` had a melting point of 220 to 222 °C.
`CCOC(=O)Cc1nn(CC(=O)Nc2ccccc2)c(=O)c2ccccc12` returned a melting point of 187 °C.
In the case of `CC(C)NC1=NS(=O)(=O)c2ccc(Oc3ccccc3)cc2N1`, the melting point was 250 to 252 °C.
Molecule `O=C(c1cc(-c2cccnc2)c(N2CCOCC2)s1)c1ccc(Cl)cc1Cl` returned a melting point of 176 °C.
`COCc1ccc(C[C@@H]2O[C@H](COC(C)=O)[C@@H](OC(C)=O)[C@H](OC(C)=O)[C@H]2OC(C)=O)cc1`: the melting point was in the range of 120 to 122 °C.
`Cn1c(=O)c(-c2ccc(Cl)cc2Cl)cc2c3cc(-c4nc(CC(=O)O)cs4)ccc3n(C)c21`: the melting point is 234 to 239 °C.
Consider `CC1(c2ccc(COc3ncc(Br)s3)cc2)OCCO1`, for which the melting point lay within 129 to 131 °C.
Then `O=c1c(Cl)c(Cl)sn1C1CCCCC1`, with 114 to 116 °C; and `CCC(C(=O)c1ccc(OCc2ccccc2)cc1)c1ccccc1` (configuration not stated), with 71 °C; and `CCc1nc2ccccc2c(=O)n1CCCOc1ccc(SC(C)(C)C(=O)O)cc1`, with 156 to 158 °C.
Molecule `CON=C(C(=O)OC)c1cccc(OCc2ccccc2)c1` registered a melting point of 62 to 63 °C.
The same measure for `Cc1cccc2cc3c(=O)n(CCc4c[nH]c5ccccc45)cc(C(=O)NCCN(C)C)c3nc12`: 105 to 107 °C.
As to `CC(=O)N1N=C(c2ccncc2)OC1c1c(Cl)cccc1Cl` (configuration not stated), the melting point amounted to 163 °C.
